Measurements taken from patent US20250311727A1, “SUBSTITUTED 2-AMINOAZINES AND SALTS THEREOF, AND USE THEREOF AS HERBICIDAL ACTIVE SUBSTANCES” (BAYER AKTIENGESELLSCHAFT, priority 2022, published 2025).

Columns and labels:
Assay type in all cases: in vivo
[1] = tested on: Abutilon theophrasti; experiment: Post-emergence herbicidal efficacy at 320 g/ha, ABUTH; settings: rated visually after about 3 weeks vs untreated controls, 100% = plants have died
Summary of the method: (§1)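 Effects are visual ratings taken about three weeks after foliar application, scaled from 0% (as untreated control) to 100% (plants died). Application was at the one-leaf stage in greenhouse-grown pots.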

[2] = tested on: Alopecurus myosuroides; experiment: Post-emergence herbicidal efficacy at 320 g/ha, ALOMY; settings: rated visually after about 3 weeks vs untreated controls, 100% = plants have died
Source text: (§2) Unwanted plants/weeds: • ABUTH: Abutilon theophrasti • ALOMY: Alopecurus myosuroides • AMARE: Amaranthus retroflexus • DIGSA: Digitaria sanguinalis • ECHCG: Echinochloa crus-galli • KCHSC: Kochia scoparia • LOLRI: Lolium rigidum • MATIN: Matricaria inodora • POAAN: Poa annua • POLCO: Polygonum convolvulus • SETVI: Setaria viridis • STEME: Stellaria media • VERPE: Veronica persica • VIOTR: Viola tricolor A. Post-Emergence Herbicidal Efficacy at 320 g/ha
(§3) Seeds of mono- and dicotyledonous weed plants were placed in plastic pots in sandy loam soil (doubly sown with in each case one species of mono- or dicotyledonous weed plants per pot), covered with soil and cultivated in a greenhouse under controlled growth conditions. 2 to 3 weeks after sowing, the test plants were treated at the one-leaf stage. The compounds of the invention, formulated in the form of wettable powders (WP) or as emulsion concentrates (EC), were applied to the green parts of the plants as aqueous suspension or emulsion with addition of 0.5% additive at a water application rate equivalent to 600 litres per hectare. After the test plants had been kept in the greenhouse under optimum growth conditions for about 3 weeks, the activity of the preparations was rated visually in comparison to untreated controls.
(§4) For example, 100% activity=the plants have died, 0% activity=like control plants.
(§5) Tables A1 to A10 below show the effects of selected compounds of the general formula (I) according to Table 1 on various harmful plants and at an application rate corresponding to 320 g/ha, which were obtained by the trial procedure specified above.

[3] = tested on: Amaranthus retroflexus; experiment: Post-emergence herbicidal efficacy at 320 g/ha, AMARE; settings: rated visually after about 3 weeks vs untreated controls, 100% = plants have died
Summary of the method: as §1

[4] = tested on: Echinochloa crus-galli; experiment: Post-emergence herbicidal efficacy at 320 g/ha, ECHCG; settings: rated visually after about 3 weeks vs untreated controls, 100% = plants have died
Source text: as §2, §3, §4, §5

[5] = tested on: Kochia scoparia; experiment: Post-emergence herbicidal efficacy at 320 g/ha, KCHSC; settings: rated visually after about 3 weeks vs untreated controls, 100% = plants have died
Summary of the method: as §1

[6] = tested on: Setaria viridis; experiment: Post-emergence herbicidal efficacy at 320 g/ha, SETVI; settings: rated visually after about 3 weeks vs untreated controls, 100% = plants have died
Source text: as §2, §3, §4, §5

[7] = tested on: Stellaria media; experiment: Post-emergence herbicidal efficacy at 320 g/ha, STEME; settings: rated visually after about 3 weeks vs untreated controls, 100% = plants have died
Summary of the method: as §1

[8] = tested on: Veronica persica; experiment: Post-emergence herbicidal efficacy at 320 g/ha, VERPE; settings: rated visually after about 3 weeks vs untreated controls, 100% = plants have died
Summary of the method: as §1

[9] = tested on: Abutilon theophrasti; experiment: Post-emergence herbicidal efficacy at 80 g/ha, ABUTH; settings: rated visually after about 3 weeks vs untreated controls, 100% = plants have died
Source text: as §2
(§6) Seeds of monocotyledonous and dicotyledonous weeds and crop plants were placed in sandy loam in plastic or organic planting pots, covered with soil and cultivated in a greenhouse under controlled growth conditions. 2 to 3 weeks after sowing, the test plants were treated at the one-leaf stage. The compounds of the invention, formulated in the form of wettable powders (WP) or as emulsion concentrates (EC), were then sprayed onto the green parts of the plants as aqueous suspension or emulsion with addition of 0.5% additive at a water application rate of 600 l/ha (converted). After the test plants had been kept in the greenhouse under optimum growth conditions for about 3 weeks, the activity of the preparations was rated visually in comparison to untreated controls. For example, 100% activity=the plants have died, 0% activity=like control plants.
(§7) Tables B1 to B11 below show the effects of selected compounds of the general formula (I) according to Table 1 on various harmful plants and an application rate corresponding to 80 g/ha, which were obtained by the experimental procedure mentioned above.

[10] = tested on: Alopecurus myosuroides; experiment: Post-emergence herbicidal efficacy at 80 g/ha, ALOMY; settings: rated visually after about 3 weeks vs untreated controls, 100% = plants have died
Source text: as §2, §6, §7

[11] = tested on: Amaranthus retroflexus; experiment: Post-emergence herbicidal efficacy at 80 g/ha, AMARE; settings: rated visually after about 3 weeks vs untreated controls, 100% = plants have died
Source text: as §2, §6, §7

[12] = tested on: Veronica persica; experiment: Post-emergence herbicidal efficacy at 80 g/ha, VERPE; settings: rated visually after about 3 weeks vs untreated controls, 100% = plants have died
Source text: as §2, §6, §7

[13] = tested on: Viola tricolor; experiment: Post-emergence herbicidal efficacy at 80 g/ha, VIOTR; settings: rated visually after about 3 weeks vs untreated controls, 100% = plants have died
Source text: as §2, §6, §7

[14] = tested on: Abutilon theophrasti; experiment: Pre-emergence herbicide efficacy at 320 g/ha, ABUTH; settings: scored visually after about 3 weeks vs untreated controls, 100% = plants have died
Source text: as §2
(§8) Seeds of mono- and dicotyledonous weed plants were placed in plastic pots in sandy loam soil (doubly sown with one species each of mono- or dicotyledonous weed plants per pot) and covered with soil. The compounds of the invention, formulated in the form of wettable powders (WP) or as emulsion concentrates (EC), were then applied to the surface of the covering soil as aqueous suspension or emulsion with addition of 0.5% additive at a water application rate of 600 litres per hectare (converted). After the treatment, the pots were placed in a greenhouse and kept under good growth conditions for the test plants. After about 3 weeks, the efficacy of the preparations was scored visually in comparison with untreated controls as percentages.
as §4
(§9) Tables C1 to C12 below show the effects of selected compounds of the general formula (I) according to Table 1 on various harmful plants and at an application rate corresponding to 320 g/ha, which were obtained by the trial procedure specified above.

[15] = tested on: Alopecurus myosuroides; experiment: Pre-emergence herbicide efficacy at 320 g/ha, ALOMY; settings: scored visually after about 3 weeks vs untreated controls, 100% = plants have died
Source text: as §2, §8, §4, §9

[16] = tested on: Amaranthus retroflexus; experiment: Pre-emergence herbicide efficacy at 320 g/ha, AMARE; settings: scored visually after about 3 weeks vs untreated controls, 100% = plants have died
Summary of the method: (§10)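 Visual percent activity versus untreated controls, read about 3 weeks after treatment, where 100% means dead plants and 0% means control-like growth. Compound (WP or EC, 0.5% additive, 600 L/ha water) was sprayed onto the covering soil over freshly sown weed seeds in sandy loam, then kept in a greenhouse.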

[17] = tested on: Digitaria sanguinalis; experiment: Pre-emergence herbicide efficacy at 320 g/ha, DIGSA; settings: scored visually after about 3 weeks vs untreated controls, 100% = plants have died
Summary of the method: as §10

[18] = tested on: Echinochloa crus-galli; experiment: Pre-emergence herbicide efficacy at 320 g/ha, ECHCG; settings: scored visually after about 3 weeks vs untreated controls, 100% = plants have died
Source text: as §2, §8, §4, §9

[19] = tested on: Kochia scoparia; experiment: Pre-emergence herbicide efficacy at 320 g/ha, KCHSC; settings: scored visually after about 3 weeks vs untreated controls, 100% = plants have died
Summary of the method: as §10

[20] = tested on: Poa annua; experiment: Pre-emergence herbicide efficacy at 320 g/ha, POAAN; settings: scored visually after about 3 weeks vs untreated controls, 100% = plants have died
Source text: as §2, §8, §4, §9

[21] = tested on: Setaria viridis; experiment: Pre-emergence herbicide efficacy at 320 g/ha, SETVI; settings: scored visually after about 3 weeks vs untreated controls, 100% = plants have died
Summary of the method: as §10

[22] = tested on: Stellaria media; experiment: Pre-emergence herbicide efficacy at 320 g/ha, STEME; settings: scored visually after about 3 weeks vs untreated controls, 100% = plants have died
Summary of the method: as §10

[23] = tested on: Veronica persica; experiment: Pre-emergence herbicide efficacy at 320 g/ha, VERPE; settings: scored visually after about 3 weeks vs untreated controls, 100% = plants have died
Summary of the method: as §10

[24] = tested on: Amaranthus retroflexus; experiment: Pre-emergence herbicide efficacy at 80 g/ha, AMARE; settings: scored visually after about 3 weeks vs untreated controls, 100% = plants have died
Source text: as §2
(§11) Seeds of monocotyledonous and dicotyledonous weed plants and crop plants were placed in plastic or organic planting pots and covered with soil. The compounds of the invention, formulated in the form of wettable powders (WP) or as emulsion concentrates (EC), were then applied to the surface of the covering soil as aqueous suspension or emulsion with addition of 0.5% additive at a water application rate equivalent to 600 l/ha. After the treatment, the pots were placed in a greenhouse and kept under good growth conditions for the test plants. After about 3 weeks, the efficacy of the preparations was scored visually in comparison with untreated controls as percentages. For example, 100% activity=the plants have died, 0% activity=like control plants.
(§12) Tables D1 to D12 below show the effects of selected compounds of the general formula (I) according to Table 1 on various harmful plants and an application rate corresponding to 80 g/ha, which were obtained by the experimental procedure mentioned above.

[25] = tested on: Digitaria sanguinalis; experiment: Pre-emergence herbicide efficacy at 80 g/ha, DIGSA; settings: scored visually after about 3 weeks vs untreated controls, 100% = plants have died
Source text: as §2, §11, §12

[26] = tested on: Polygonum convolvulus; experiment: Pre-emergence herbicide efficacy at 80 g/ha, POLCO; settings: scored visually after about 3 weeks vs untreated controls, 100% = plants have died
Source text: as §2, §11, §12

[27] = tested on: Setaria viridis; experiment: Pre-emergence herbicide efficacy at 80 g/ha, SETVI
Source text: as §2, §11, §12

[28] = tested on: Viola tricolor; experiment: Pre-emergence herbicide efficacy at 80 g/ha, VIOTR
Source text: as §2, §11, §12

Cc1cnc(Nc2cccc(F)c2-c2cc(C(F)F)no2)nc1 [Example 1-36]
Post-emergence efficacy at 320 g/ha against ABUTH in % [1]: 100%
Post-emergence efficacy at 320 g/ha against ALOMY in % [2]: 100%
Post-emergence efficacy at 320 g/ha against AMARE in % [3]: 100%
Post-emergence efficacy at 320 g/ha against ECHCG in % [4]: 100%
Post-emergence efficacy at 320 g/ha against KCHSC in % [5]: 100%
Post-emergence efficacy at 320 g/ha against SETVI in % [6]: 100%
Post-emergence efficacy at 320 g/ha against STEME in % [7]: 100%
Post-emergence efficacy at 320 g/ha against VERPE in % [8]: 100%
Post-emergence efficacy at 80 g/ha against ABUTH in % [9]: 100%
Post-emergence efficacy at 80 g/ha against ALOMY in % [10]: 80%
Post-emergence efficacy at 80 g/ha against AMARE in % [11]: 90%
Post-emergence efficacy at 80 g/ha against VERPE in % [12]: 80%
Post-emergence efficacy at 80 g/ha against VIOTR in % [13]: 100%
Pre-emergence efficacy at 320 g/ha against ABUTH in % [14]: 100%
Pre-emergence efficacy at 320 g/ha against ALOMY in % [15]: 100%
Pre-emergence efficacy at 320 g/ha against AMARE in % [16]: 100%
Pre-emergence efficacy at 320 g/ha against DIGSA in % [17]: 100%
Pre-emergence efficacy at 320 g/ha against ECHCG in % [18]: 100%
Pre-emergence efficacy at 320 g/ha against KCHSC in % [19]: 100%
Pre-emergence efficacy at 320 g/ha against POAAN in % [20]: 100%
Pre-emergence efficacy at 320 g/ha against SETVI in % [21]: 100%
Pre-emergence efficacy at 320 g/ha against STEME in % [22]: 100%
Pre-emergence efficacy at 320 g/ha against VERPE in % [23]: 100%
Pre-emergence efficacy at 80 g/ha against AMARE in % [24]: 90%
Pre-emergence efficacy at 80 g/ha against DIGSA in % [25]: 90%
Pre-emergence efficacy at 80 g/ha against POLCO in % [26]: 90%
Pre-emergence efficacy against SETVI [27]: 90%
Pre-emergence efficacy against VIOTR [28]: 80%
